From patent US8734869B2, “Synergistic pest-control compositions” (TyraTech, Inc., priority 2007, dated 2014) come the findings set out here.

For one assay, the system named is male German Cockroach. Put plainly: Time to kill: five microliters applied to the sternum, time to death recorded (stopped at one hour). The note with it: five microliters on sternum. Format: in vivo. The procedure: Five microliters of the oil or oil blend listed in the table below were applied to the sternum of a male German Cockroach, and the time to death was recorded (time keeping was stopped at one hour). Sample size N=60 for Blend 24 and N=40 for each of the oil components. Components were diluted with acetone. Five microliters of the oil or oil blend listed in the table below were applied to the sternum of a male German Cockroach, and the time to death was recorded (time keeping was stopped at one hour). Sample size N=60 for Blend 41 and each of the oil components. Components were diluted with acetone. Five microliters of the oil or oil blend listed in the table below were applied to the sternum of a male German Cockroach, and the time to death was recorded (time keeping was stopped at one hour). Sample size N=40 for Blend 41 and each of the oil components. Components were diluted with acetone.

Another assay deals with Drosophila S2 cells. Briefly: cAMP response in cells treated with Blend 41, imidacloprid and combinations. Format: cell-based. The text has this: FIG. 23 is a bar graph showing percent knockdown in response to treatment of Aedes aegypti with various compositions of including Blend 41 alone, Imidacloprid alone, and combinations of Blend 41 and Imidacloprid. FIG. 24 is a bar graph showing percent knockdown in response to treatment of Aedes aegypti with various compositions of including Blend 41 alone, Imidacloprid alone, and combinations of Blend 41 and Imidacloprid. FIG. 25 is a bar graph showing cAMP signal produced in response to treatment of Drosophila S2 cells treated with various compositions of including Blend 41 alone, Imidacloprid alone, and combinations of Blend 41 and Imidacloprid.

Assay [1] concerns olfactory receptor activation in Drosophila S2 cells. Briefly: Ca2+ release triggered by olfactory receptor activation in Drosophila S2 cells. The assay is classed as cell-based. From the text: In embodiments of the present invention, a Drosophila Schneider 2 (S2) cell line is stably transfected with a G protein-coupled receptor that is amplified from Drosophila melanogaster head cDNA phage library. The cell line can be used to screen potential active ingredients, as described below.
The potential for insect control activity can be identified by measuring the affinity of the test compositions for the receptor in the cell lines expressing a TyrR, Or83b, and/or Or43a. The potential for insect control activity can also be identified by measuring the change in intracellular cAMP and/or Ca2+ in the cell lines expressing TyrR, Or83b, and/or Or43a following treatment with the test compositions. The gene sequences of the TyrR, the Or 83b receptor and the Or 43a receptor have substantial similarity between various insect species. As such, the Drosophila Schneider cell lines expressing these receptors can be used to screen for compositions having insect control activity in various insect species.
A blend can is prepared and combined with a synthetic pyrethroid such as delatmetrhin. For example, Blend 41 was combined with deltamethrin (DM) and the efficacy of Blend 41 and DM individually were compared to the efficacy of Blend 41 and DM combined. […]

In assay [2] the test system is American cockroaches. Briefly: Residual activity of stabilized compositions, treated jars reused, mortality 24 hours after exposure. Format: in vivo, American cockroach. The note with it: tested about 48 hours after application. The protocol: A solution of 5% thyme crystals (TC) is prepared in acetone and about 2 ml of the solution is applied to the bottom of a glass jar. About 2 ml of six compositions (R1-R6), set forth in Table 19-A, are each applied to the bottom of a separate jar. Thyme Crystals (5%, by weight) are combined with the six compositions (R1-R6) to produce six formulations. About 2 ml of each formulation is applied to a separate jar.
[…] Mortality is recorded about 24 hours after exposure. All jars are kept under room temperature and reused at subsequent time points to evaluate residual activity. […] Mortality is recorded about 24 hours after each exposure.

The test system of assay [3] is American cockroaches. Briefly: Residual activity of stabilized compositions, separate jar per time period. The assay is classed as in vivo, American cockroach. The note with it: tested about 48 hours after application; separate jar per time point. The procedure: In studies where treatment jars are reused at various time intervals, as described in Example 19, the materials in the jars are lost after each exposure due to contact with and transfer to the insect body, rather than via loss due to volatility of the material. As such, additional studies are conducted wherein a separate jar is prepared for each time period.
A solution of 5% thyme crystal (TC) is prepared in acetone and about 2 ml of the solution is applied to the bottom of five separate glass jars, one for each time point at which mortality is assessed. About 2 ml of six compositions (R1-R6), set forth above in Table 19-A, are each applied to the bottom of five separate jars. Thyme Crystals (5%, by weight) are combined with the six compositions (R1-R6) to produce six formulations. About 2 ml of each formulation is applied to five separate jars.
[…] Mortality is recorded about 24 hours after exposure. […] Mortality is recorded about 24 hours after each exposure.

The test system of the next assay is German Cockroach. Briefly: Bioactivity of Blend 13, deltamethrin and combination. Format: in vivo.
The test system of assay [4] is American cockroaches. Briefly: Treated jar test, knockdown and mortality time: Blend 41, deltamethrin, combination. Conditions: average of 3 replicates, 5 roaches each. The assay is classed as in vivo, American cockroach. The procedure:
To test efficacy of the composition, a small amount of each test chemical is introduced to a separate jar. About 3 to 5 American cockroaches are introduced to each jar at different time intervals. Mortality and/or immobilization (knockdown, KD) data is recorded and compared. Such data is recorded as seconds (s) following introduction of the insect to the treated jar. The resulting data is contained in the following table.
The data is the average of 3 replicates, 5 roaches in each replicate.

`C=C(C)[C@H]1CC=C(C)CC1` [D-Limonene]: the “Percent of Tested Insects > 1 hr Time to Death” value in the assay on male German Cockroach (component at 83%, diluted with acetone) is reported as 25%; with male German Cockroach (component of Blend 31 diluted with acetone, concentration not given), 22.5%.
For the compound `O=[N+]([O-])NC1=NCCN1Cc1ccc(Cl)nc1` [imidacloprid], the entries for the “cAMP” value in the assay on Drosophila S2 cells (100 PPM), in the assay on Drosophila S2 cells (333 PPM) and with Drosophila S2 cells (500 PPM) were 9.1 nM, 9.4 nM and 8.8 nM, respectively.
As to `CCCCCCCCCCCCCC(=O)OC(C)C` [Isopropyl myristate, propan-2-yl tetradecanoate], the “Percent of Tested Insects > 1 hr Time to Death” value in the assay on male German Cockroach (component at 40%, diluted with acetone) stood at 100%.
In the case of `CN/C(=N\[N+](=O)[O-])NCc1cnc(Cl)s1` [clothianidin], the “Ca2+ release, single agent alone” value in assay [1] was “increase in Ca^2+ release”.
Consider `Cc1ccc(C(C)C)c(O)c1` [thyme crystal], for which the residual activity result in the assay on American cockroaches [2] and with American cockroaches [3] was “does not have residual activity” in each case.
`CC1(C)[C@H](C(=O)O[C@H](C#N)c2cccc(Oc3ccccc3)c2)[C@@H]1C=C(Br)Br` [deltamethrin]: in the assay on German Cockroach, the “Bioactivity 100% Kill” value came to 15 min and the “Bioactivity KD” value was found to be 120 s. Besides, in the assay on American cockroaches [4] (time to 100% kill in treated jar), the “100% Kill” value is on record as 12 min. The KD in the assay on American cockroaches [4] (time to knockdown in treated jar) was found to be 140 s.
